Test system: P. falciparum K1 (CQ-resistant strain)
Test: Antimalarial activity, chloroquine-resistant strain K1
Format: cell-based, Plasmodium falciparum

## COc1ccc(F)cc1CNCCCNc1ccnc2cc(Oc3ccccc3)ccc12 [3{1,1,4}]
  antimalarial activity against strain K1 (in words): enhanced potency in strain K1

## COc1cccc(Oc2ccc3c(NCCCNCc4cc(F)ccc4OC)ccnc3c2)c1 [3{1,3,4}]
  antimalarial activity against strain K1 (in words): enhanced potency in strain K1

## COc1ccc(F)cc1CNCCCNc1ccnc2cc(Oc3ccc(F)cc3)ccc12 [3{1,5,4}]
  antimalarial activity against strain K1 (in words): enhanced potency in strain K1

Reference: publication PMC3697074 (Journal of medicinal chemistry, 2011)
